Key:
Assay type in all cases: cell-based
K.P. 156319 KPC-3 = assay: Broth microdilution MIC, K. pneumoniae 156319; conditions: Klebsiella pneumoniae; fixed meropenem 4 μg/mL, CAMHB, 16-20 hours 37° C.; read-out: MIC of exemplary compounds in presence of fixed β-lactams, Fixed Mero, K.P. 156319 KPC-3
P. aerug. Ps296 VIM-2 = assay: Broth microdilution MIC, P. aeruginosa Ps296; conditions: Pseudomonas aeruginosa; fixed meropenem 4 μg/mL, CAMHB, 16-20 hours 37° C.; read-out: MIC of exemplary compounds in presence of fixed β-lactams, Fixed Mero, P. aerug. Ps296 VIM-2
Text: (§1) To determine the ability of test compounds to potentiate the inhibition of the growth of bacterial strains that produce beta-lactamase enzymes, classic cell based broth microdilution MIC assays were employed. Six bacteria strains producing beta-lactamase enzymes were used: E. coli expressing the Class A Extended Spectrum Beta-Lactamase (ESBL) CTX-M-15, E. cloacae expressing the Class C P99, K. pneumoniae expressing the Class A carbapenemase KPC-2, P. aeruginosa expressing the Class B carbapenemase VIM-2, K. pneumoniae expressing the class A carbapenemase KPC-2 and the class B carbapenemase VIM-4, and S. aureus producing the Class A penicillinase PC-1. The assay was conducted in Cation Adjusted Mueller Hinton Broth (CAMHB, BD #212322, BD Diagnostic Systems, Sparks, Md.). Bacteria strains were grown for 3-5 hours in CAMBH broth. Test compounds were added to a microtiter plate in 2-fold serial dilutions in CAMHB in a final concentration range of 32 μg/mL to 0.25 μg/ml. An overlay of CAMHB containing a Beta-lactam was added to the compounds at a final static concentration of 4 μg/ml. […] In addition to the titration of test compounds the MICs of a panel of control beta-lactams is also tested to ensure the strains are behaving consistently from test to test. Once the test compound and antibiotics are added the plates can be inoculated according to CLSI broth microdilution method. After inoculation the plates are incubated for 16-20 hours at 37° C. then the Minimal Inhibitory Concentration (MIC) of the test compound is determined visually.
(§2) Using the methodology described above in EXAMPLE III, exemplary compounds for Formula I or Formula Ia were evaluated for their ability to inhibit the growth of β-lactamase producing bacteria in the presence of a β-lactam antibiotic.

K.P. A-1797 KPC-2 VIM-4 = assay: Broth microdilution MIC, K. pneumoniae A-1797; conditions: Klebsiella pneumoniae; fixed meropenem 4 μg/mL, CAMHB, 16-20 hours 37° C.; read-out: MIC of exemplary compounds in presence of fixed β-lactams, Fixed Mero, K.P. A-1797 KPC-2 VIM-4
Text: as §1, §2

S. aureus MSSA-7 PC-1 = assay: Broth microdilution MIC, S. aureus MSSA-7; conditions: Staphylococcus aureus, fixed piperacillin 4 μg/mL, CAMHB, 16-20 hours 37° C., read-out: MIC of exemplary compounds in presence of fixed β-lactams, Fixed Pip, S. aureus MSSA-7 PC-1
Text: as §1, §2

E. coli ESBL4 CTX-M-15 = assay: Broth microdilution MIC, E. coli ESBL4; conditions: Escherichia coli, ESBL4CTXM15; fixed ceftazidime 4 μg/mL, CAMHB, 16-20 hours 37° C.; read-out: MIC of exemplary compounds in presence of fixed β-lactams, Fixed CAZ, E. coli ESBL4 CTX-M-15
Text: as §1, §2

E. cl 144200 p99 AmpC = assay: Broth microdilution MIC, E. cloacae 144200; conditions: Enterobacter cloacae; fixed ceftazidime 4 μg/mL, CAMHB, 16-20 hours 37° C.; read-out: MIC of exemplary compounds in presence of fixed β-lactams, Fixed CAZ, E. cl 144200 p99 AmpC
Text: as §1, §2

SMILES | MIC (K.P. 156319 KPC-3) | MIC (P. aerug. Ps296 VIM-2) | MIC (K.P. A-1797 KPC-2 VIM-4) | MIC (S. aureus MSSA-7 PC-1) | MIC (E. coli ESBL4 CTX-M-15) | MIC (E. cl 144200 p99 AmpC)
O=C(C[C@H]1CC[C@H](NCc2cccnc2)CC1)N[C@H]1Cc2cccc(C(=O)O)c2OB1O [Example 27, (R)-2-hydroxy-3-(2-(trans-4-(pyridin-3-ylmethylamino)cyclohexyl)acetamido)-3,4-dihydro-2H-benzo[e][1,2]oxaborinine-8-carboxylic acid] | < 4 µg/mL | 8 to 32 µg/mL | 8 to 32 µg/mL | < 4 µg/mL | < 4 µg/mL | < 4 µg/mL
O=C(O)CN[C@H]1CC[C@H](CC(=O)N[C@H]2Cc3cccc(C(=O)O)c3OB2O)CC1 [Example 28, (R)-3-(2-(trans-4-(carboxymethylamino)cyclohexyl)acetamido)-2-hydroxy-3,4-dihydro-2H-benzo[e][1,2]oxaborinine-8-carboxylic acid] | < 4 µg/mL | 8 to 32 µg/mL | > 32 µg/mL | < 4 µg/mL | < 4 µg/mL | < 4 µg/mL
O=C(C[C@H]1CC[C@H](N2C=NCC2)CC1)N[C@H]1Cc2cccc(C(=O)O)c2OB1O [Example 29, (R)-3-(2-(trans-4-(4,5-dihydro-1H-imidazol-1-yl)cyclohexyl)acetamido)-2-hydroxy-3,4-dihydro-2H-benzo[e][1,2]oxaborinine-8-carboxylic acid] | < 4 µg/mL | 8 to 32 µg/mL | > 32 µg/mL | < 4 µg/mL | < 4 µg/mL | < 4 µg/mL
N=CN[C@H]1CC[C@H](CC(=O)N[C@H]2Cc3cccc(C(=O)O)c3OB2O)CC1 [Example 30, (R)-3-(2-(trans-4-formimidamidocyclohexyl)acetamido)-2-hydroxy-3,4-dihydro-2H-benzo[e][1,2]oxaborinine-8-carboxylic acid] | < 4 µg/mL | 8 to 32 µg/mL | 8 to 32 µg/mL | < 4 µg/mL | < 4 µg/mL | < 4 µg/mL
O=C(CC1CCCCC1)N[C@H]1Cc2cccc(C(=O)O)c2OB1O [Example 31, (R)-3-(2-cyclohexylacetamido)-2-hydroxy-3,4-dihydro-2H-benzo[e][1,2]oxaborinine-8-carboxylic acid] | 8 to 32 µg/mL | 8 to 32 µg/mL | > 32 µg/mL | < 4 µg/mL | < 4 µg/mL | < 4 µg/mL
O=C(C[C@H]1CC[C@H](NCc2ccccn2)CC1)N[C@H]1Cc2cccc(C(=O)O)c2OB1O [Example 32, (R)-2-hydroxy-3-(2-(trans-4-(pyridin-2-ylmethylamino)cyclohexyl)acetamido)-3,4-dihydro-2H-benzo[e][1,2]oxaborinine-8-carboxylic acid] | < 4 µg/mL | 8 to 32 µg/mL | > 32 µg/mL | < 4 µg/mL | < 4 µg/mL | < 4 µg/mL
O=C(C[C@H]1CC[C@H](NCC2CCNCC2)CC1)N[C@H]1Cc2cccc(C(=O)O)c2OB1O [Example 33, (R)-2-hydroxy-3-(2-(trans-4-(piperidin-4-ylmethylamino)cyclohexyl)acetamido)-3,4-dihydro-2H-benzo[e][1,2]oxaborinine-8-carboxylic acid] | < 4 µg/mL | 8 to 32 µg/mL | 8 to 32 µg/mL | < 4 µg/mL | < 4 µg/mL | < 4 µg/mL
N=C(N)N1CCC(CN[C@H]2CC[C@H](CC(=O)N[C@H]3Cc4cccc(C(=O)O)c4OB3O)CC2)CC1 [Example 34, (R)-3-(2-(trans-4-((1-carbamimidoylpiperidin-4-yl)methylamino)cyclohexyl)acetamido)-2-hydroxy-3,4-dihydro-2H-benzo[e][1,2]oxaborinine-8-carboxylic acid] | < 4 µg/mL | < 4 µg/mL | 8 to 32 µg/mL | < 4 µg/mL | < 4 µg/mL | < 4 µg/mL
N[C@H]1CC(CC(=O)N[C@H]2Cc3cccc(C(=O)O)c3OB2O)C[C@@H]1N [Example 37] | < 4 µg/mL | < 4 µg/mL | 8 to 32 µg/mL | < 4 µg/mL | < 4 µg/mL | < 4 µg/mL
CC(NC(=O)C1C[C@H](N)[C@@H](N)C1)C(=O)N[C@H]1Cc2cccc(C(=O)O)c2OB1O (stereo partly drawn) [Example 38] | < 4 µg/mL | < 4 µg/mL | < 4 µg/mL | < 4 µg/mL | < 4 µg/mL | < 4 µg/mL
O=C(C[C@H]1CC[C@H](NCc2nccs2)CC1)N[C@H]1Cc2cccc(C(=O)O)c2OB1O [Example 39] | < 4 µg/mL | 8 to 32 µg/mL | 8 to 32 µg/mL | < 4 µg/mL | < 4 µg/mL | < 4 µg/mL
O=C(CC1CCC(N2CCOCC2)CC1)N[C@H]1Cc2cccc(C(=O)O)c2OB1O (stereo partly drawn) [Example 40, (R)-2-hydroxy-3-(2-(4-morpholinocyclohexyl)acetamido)-3,4-dihydro-2H-benzo[e][1,2]oxaborinine-8-carboxylic acid] | < 4 µg/mL | > 32 µg/mL | > 32 µg/mL | < 4 µg/mL | < 4 µg/mL | < 4 µg/mL
N[C@@H](C(=O)N[C@H]1Cc2cccc(C(=O)O)c2OB1O)C1CCCCC1 [Example 42, (R)-3-((R)-2-amino-2-cyclohexylacetamido)-2-hydroxy-3,4-dihydro-2H-benzo[e][1,2]oxaborinine-8-carboxylic acid] | < 4 µg/mL | < 4 µg/mL | 8 to 32 µg/mL | 8 to 32 µg/mL | < 4 µg/mL | < 4 µg/mL
NCCNC1CCC(O)(CC(=O)N[C@H]2Cc3cccc(C(=O)O)c3OB2O)CC1 (stereo partly drawn) [Example 43, 3-{2-[4-(2-Amino-ethylamino)-1-hydroxy-cyclohexyl]-acetylamino}-2-hydroxy-3,4-dihydro-2H-benzo[e][1,2]oxaborinine-8-carboxylic acid] | < 4 µg/mL | < 4 µg/mL | > 32 µg/mL | < 4 µg/mL | < 4 µg/mL | < 4 µg/mL
NC1CCC(O)(CC(=O)N[C@H]2Cc3cccc(C(=O)O)c3OB2O)CC1 (stereo partly drawn) [Example 44, 3-[2-(4-Amino-1-hydroxy-cyclohexyl)-acetylamino]-2-hydroxy-3,4-dihydro-2H-benzo[e][1,2]oxaborinine-8-carboxylic acid] | < 4 µg/mL | 8 to 32 µg/mL | < 4 µg/mL | 8 to 32 µg/mL | < 4 µg/mL | < 4 µg/mL
N[C@H]1CC[C@H](NCC(=O)N[C@H]2Cc3cccc(C(=O)O)c3OB2O)CC1 [Example 45, 3-[2-(4-Amino-cyclohexylamino)-acetylamino]-2-hydroxy-3,4-dihydro-2H-benzo[e][1,2]oxaborinine-8-carboxylic acid] | < 4 µg/mL | 8 to 32 µg/mL | 8 to 32 µg/mL | < 4 µg/mL | < 4 µg/mL | < 4 µg/mL

From patent US10669290B2, “Beta-lactamase inhibitors” (priority 2012, dated 2020)
